According to publication PMC10215404, “Effect of Indole-Containing Pyrazino[2,1-b]quinazoline-3,6-diones in the Virulence of Resistant Bacteria” (Antibiotics, 2023):
pIC50: −log10 of the molar value. In brackets after ≈: the same amount, converted by molar mass.

Tests used:
[1] = system: E. coli AG100A; experiment: Real-time ethidium bromide accumulation assay (efflux pump inhibition); conditions: compound at 100 μM, minute 60
[2] = system: S. aureus 272123; experiment: as above; conditions: minute 60
[3] = system: E. coli AG100A; experiment: Biofilm formation, crystal violet method; type: cell-based, Escherichia coli
Experimental: (§1) The antibiofilm effect of the tested compounds was evaluated using the crystal violet method on E. coli AG100, E. coli AG100A, and MRSA 272123. […] CCCP was used as a positive control.
(§2) The biofilm-forming ability of the S. aureus strains was studied in 96-well microtiter plates using TSB broth in the presence of compounds. The biofilm-forming ability of the E. coli strains was studied in 96-well microtiter plates using LB broth in the presence of the compounds. […] The final volume was 200 μL in each well. The positive control was CCCP at 50 µM. Plates were incubated for 48 h at 30 °C with gentle shaking at 100 rpm. After the incubation period, the medium was removed and the plate was washed with water to remove unattached cells. A total of 200 μL CV (0.1% [v/v]) was added to each wells and incubated for 15 min at room temperature. CV was discarded from the wells and the plate was washed with water again. Then, 200 μL of 70% ethanol was added to each well and the biofilm formation was determined by measuring the OD at 600 nm using a Multiscan EX ELISA plate reader (Thermo Labsystems, Cheshire, WA, USA). The antibiofilm effect of the compounds was expressed as the percentage (%) decrease in biofilm formation.

[4] = system: E. coli AG100; experiment: Biofilm formation, crystal violet method; type: cell-based, Escherichia coli; conditions: 50 μM
Experimental: as §1, §2

[5] = system: E. coli AG100; experiment: Real-time ethidium bromide accumulation assay (efflux pump inhibition); conditions: minute 60
[6] = system: NIH/3T3 mouse fibroblast cell line; experiment: Cytotoxicity assay (MTT); type: cell-based; conditions: NIH3T3, 24 h
Experimental: The effects of increasing concentrations of compounds on cell growth were tested in 96-well flat-bottomed microtiter plates. The compounds were diluted in a volume of 100 μL of medium. Afterwards, 1 × 10^4 cells in 100 μL of medium were added to each well, with the exception of the medium control. In the case of NIH/3T3 cells, the compounds were added after seeding the cells at 37 °C overnight. The plates were incubated at 37 °C for 24 h; after the incubation period, 20 μL of MTT solution (from a 5 mg/mL stock) was added to each well. After 4 h of incubation at 37 °C, 100 μL of SDS solution (10% in 0.01 M HCl) was added to each well and the plates were incubated at 37 °C overnight. Cell growth was determined by measuring the optical density (OD) at 540 nm (ref. 630 nm) with a Multiscan EX ELISA reader. Inhibition of cell growth was determined as IC50 values, defined as the inhibitory dose that reduced the growth of the cells exposed to the tested compounds by 50%. IC50 values and the SD of triplicate experiments were calculated by using GraphPad Prism software version 5.00 for Windows with a nonlinear regression curve fit (GraphPad Software, San Diego, CA, USA; www.graphpad.com, accessed on 14 July 2022). Doxorubicin (from a 2 mg/mL stock solution, Teva Pharmaceuticals) was used as the positive control.

[7] = system: phytopathogenic fungi; parameters: method as in PMID 22409377; conditions: several phytopathogenic fungi; cited from earlier work
[8] = system: E. faecalis ATCC 29212; experiment: MIC determination, broth microdilution; type: cell-based; conditions: Enterococcus faecalis, ATCC29212
From the text: (§3) Both reference and resistant strains used in this work were employed by our group for the screening of different families of compounds, such as xanthones and thioxanthones.

[9] = system: E. faecalis B3/101 (VRE); experiment: MIC determination, broth microdilution; type: cell-based; conditions: Enterococcus faecalis
From the text: as §3

[10] = system: S. aureus MRSA 272123; experiment: MIC determination, broth microdilution; type: cell-based; conditions: Staphylococcus aureus
From the text: as §3

[11] = system: S. aureus ATCC 29213; experiment: MIC determination, broth microdilution; type: cell-based; conditions: Staphylococcus aureus, ATCC29213
From the text: as §3

[12] = system: P. aeruginosa ATCC 27853; experiment: MIC determination, broth microdilution; type: cell-based; conditions: Pseudomonas aeruginosa, ATCC27853
From the text: as §3

[13] = system: E. coli (ATCC 25922, SA/2, AG100, AG100A); experiment: MIC determination, broth microdilution; type: cell-based; conditions: Escherichia coli, ATCC25922
From the text: as §3

[14] = system: S. aureus 66/1 (MRSA); experiment: MIC determination, broth microdilution; type: cell-based; conditions: Staphylococcus aureus
From the text: as §3

[15] = system: H1N1; parameters: method as in PMID 23758051; conditions: anti-viral; cited from earlier work
[16] = system: Vibrio harveyi; conditions: aqua-pathogenic Vibrio harveyi; literature, reference not given; cited from earlier work
[17] = system: Staphylococcus aureus; conditions: sensitive and methicillin-resistant strains of S. aureus; cited from earlier work
[18] = system: human brain endothelial cell line (hCMEC/D3); parameters: method as in PMID 27268269; conditions: cited from earlier work
[19] = system: Enterococcus faecalis; conditions: sensitive and vancomycin-resistant strains of E. faecalis; cited from earlier work

For C[C@@H]1NC(=O)[C@@H](Cc2c[nH]c3ccccc23)n2c1nc1ccccc1c2=O [Compound 2, (1S,4R)-4-((1H-indol-3-yl)methyl)-1-methyl-1,2-dihydro-6H-pyrazino[2,1-b]quinazoline-3,6(4H)-dione], the “RFI ± SD” value [1] was 0.26 ± 0.10, the “RFI ± SD” value ([2]; compound at 50 μM) was −0.01 ± 0.02 and the “RFI ± SD” value ([2]; compound at 100 μM) was 0.05 ±0.02. The “decrease in biofilm formation” value [3] was 65%, the “antibiofilm effect (in words)” value [4] was “reduced the amount of biofilm” and the “RFI ± SD” value ([5]; compound at 50 μM) was −0.31 ± 0.02. For the same molecule, the “RFI ± SD” value ([5]; compound at 100 μM) was 0.17 ± 0.10, the pIC50 [6] was less than 4.00 and the MIC [7] was 12.5 to 25 µg/mL. It also gave an MIC [8] greater than 100 µM, an MIC [9] greater than 100 µM and an MIC [10] greater than 100 µM. For the same molecule, the MIC [11] was greater than 100 µM, the MIC [12] was greater than 100 µM and the MIC [13] was greater than 100 µM. It also gave an MIC [14] greater than 100 µM.

In the case of O=C1NCc2nc3ccccc3c(=O)n2[C@@H]1Cc1c[nH]c2ccccc12 [Compound 1, (R)-4-((1H-indol-3-yl)methyl)-1,2-dihydro-6H-pyrazino[2,1-b]quinazoline-3,6(4H)-dione], the “RFI ± SD” value [1] is given as 0.12 ± 0.01, the pIC50 [15] is given as 3.82 to 4.00 and the MIC [16] is given as 32 µg/mL (≈ 92.9 µM). For the same molecule, the “RFI ± SD” value ([2]; compound at 50 μM) was 0.23 ± 0.02, the “RFI ± SD” value ([2]; compound at 100 μM) was −0.01 ± 0.04 and the “RFI ± SD” value ([5]; compound at 50 μM) was −0.24 ± 0.05. The “RFI ± SD” value ([5]; compound at 100 μM) was −0.04 ± 0.10, the pIC50 [6] was less than 4.00 and the MIC [8] was greater than 100 µM. For the same molecule, the MIC [9] was greater than 100 µM, the MIC [10] was greater than 100 µM and the MIC [11] was greater than 100 µM. For the same molecule, the MIC [12] was greater than 100 µM, the MIC [13] was greater than 100 µM and the MIC [14] was greater than 100 µM.

For CC(C)[C@@H]1NC(=O)[C@@H](C[C@]2(O)c3ccccc3N3C(=O)[C@@H](C)N[C@H]32)n2c1nc1ccccc1c2=O [Compound 3, Neofiscalin A], the MIC [17] is listed as 8 µg/mL (≈ 16.9 µM), the “cytotoxicity (in words)” value [18] is listed as “no cytotoxicity” and the MIC [19] is listed as 8 µg/mL (≈ 16.9 µM).
